The values that follow come from patent US7557134B2, “N-(heteroaryl)-1H-indole-2-carboxamide derivatives and their use as vanilloid TRPV1 receptor ligands” (Sanofi-Aventis, priority 2005, dated 2009).

For data set [1], the target named is T1, TRPV1 receptor (Rattus norvegicus, UniProt O35433).
T1 construct: The neurons of the DRG naturally express the TRPV1 receptor; endogenous in cells; host or cells: primary culture of newborn rat dorsal root ganglion neurons
The data set can be described thus: Test of inhibition of the current induced with capsaicin on rat DRGs (whole-cell patch-clamp). Format: cell-based. The conditions noted are these: capsaicin response 300 nM, rat DRG neurons. The procedure:
Test of Inhibition of the Current Induced with Capsaicin on rat DRGs
• Primary culture of rat dorsal root ganglion (DRG) cells:
The neurons of the DRG naturally express the TRPV1 receptor.
The primary cultures of newborn rat DRGs are prepared using 1-day-old rats. Briefly, after dissection, the ganglions are trypsinized and the cells dissociated by mechanical trituration. The cells are resuspended in an Eagle basal culture medium containing 10% fetal calf serum, 25 mM KCl, 2 mM glutamine, 100 μg/ml gentamicin and 50 ng/ml of NGF, and then deposited on glass slides coated with laminin (0.25×10^6 cells per slide), which are then placed in Corning 12-well dishes. The cells are incubated at 37° C. in a humidified atmosphere containing 5% CO2 and 95% air. Cytosine β-D-arabinoside (1 μM) is added 48 hours after culturing, to prevent the growth of non-neuronal cells. The slides are transferred into experimental chambers for the patch-clamp studies after 7-10 days of culturing.
The measuring chambers (volume 800 μl) containing the cell preparation are placed on the platform of an inverted microscope (Olympus IMT2) equipped with Hoffman optics (Modulation Contrast, New York) and observed at a magnification of 400×. The chambers are continuously gravity-influxed (2.5 ml/min) using a solution distributor accepting 8 inlets and whose sole outlet, consisting of a polyethylene tube (aperture 500 μm), is placed less than 3 mm from the cell under study. The “whole cell” configuration of the patch-clamp technique was used. […] The overall currents (membrane potential set at […]) are recorded with an Axopatch 1 D amplifier (Axon Instruments, Foster city, Calif.), connected to a PC running the Pclamp8 software (Axon Instrument). The current plots are recorded on paper and simultaneously digitized (sampling frequency 15 to 25 Hz) and acquired on the hard drive of the PC.
The application of a 300 nM capsaicin solution induces on the DRG cells (voltage set at −70 mV) an entering cationic current. […] The results are expressed as a percentage of inhibition of the control capsaicin response.

Data set [2] deals with T2, TRPV1 receptors (Mus musculus, UniProt Q704Y3).
T2 construct: from tissue; host or cells: living mouse, cornea (capsaicin ocular instillation)
T2 sequence (Q704Y3 whole entry): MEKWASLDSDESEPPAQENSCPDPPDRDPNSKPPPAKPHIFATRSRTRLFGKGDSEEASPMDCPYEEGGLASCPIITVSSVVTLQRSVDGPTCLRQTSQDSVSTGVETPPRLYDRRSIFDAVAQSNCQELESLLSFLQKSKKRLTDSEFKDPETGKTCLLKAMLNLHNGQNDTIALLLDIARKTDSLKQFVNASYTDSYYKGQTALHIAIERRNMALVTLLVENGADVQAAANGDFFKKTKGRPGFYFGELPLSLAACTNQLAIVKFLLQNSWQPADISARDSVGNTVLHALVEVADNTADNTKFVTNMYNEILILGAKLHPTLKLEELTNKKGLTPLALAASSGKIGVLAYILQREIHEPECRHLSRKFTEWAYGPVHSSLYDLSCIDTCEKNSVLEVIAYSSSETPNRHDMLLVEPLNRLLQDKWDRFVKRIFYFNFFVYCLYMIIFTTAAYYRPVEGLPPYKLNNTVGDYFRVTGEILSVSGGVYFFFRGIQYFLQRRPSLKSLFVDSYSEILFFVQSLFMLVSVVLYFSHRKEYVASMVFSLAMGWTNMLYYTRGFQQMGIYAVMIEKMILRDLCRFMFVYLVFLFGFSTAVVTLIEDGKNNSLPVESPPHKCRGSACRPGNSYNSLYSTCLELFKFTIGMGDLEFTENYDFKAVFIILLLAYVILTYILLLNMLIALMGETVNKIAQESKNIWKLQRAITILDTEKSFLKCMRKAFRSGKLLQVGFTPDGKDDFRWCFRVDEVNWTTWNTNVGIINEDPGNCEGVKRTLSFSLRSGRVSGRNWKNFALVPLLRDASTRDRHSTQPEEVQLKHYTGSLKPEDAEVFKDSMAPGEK
The data set can be described thus: Test of mouse corneal irritation (capsaicin ocular instillation). Type of data set: in vivo. The conditions noted are these: 1 mg/kg po, pretreatment time t = 1 h, n = 8, 2 μl of 160 μM capsaicin. As to the method: Test of Mouse Corneal Irritation
The irritant nature of capsaicin is readily assessed on the cornea since this organ is one of the organs most densely innervated with C fibres. In this context, from preliminary experiments, the application of a very small amount of capsaicin (2 μl at a concentration of 160 μM) to the surface of the cornea of an animal leads to a certain number of stereotypic behavioral traits associated with irritation, which are easy to detect. Among these, the following are noted: blinking of the eye, rubbing of the instilled eye with the ipsilateral front paw, rubbing of the face with both front paws, scratching of the ipsilateral face with the hind paw. […] This aspect is moreover also normal. […]
In practice, the test product is administered orally and, with a delay (pretreatment time: t) that depends on the pharmacokinetic data, the animal receives an ocular instillation of 2 μl of a 160 μM capsaicin solution prepared as indicated above. During a 2-minute observation following the instillation, the number of times the instilled eye is rubbed with the ipsilateral front paw is recorded.
For a given animal, the percentage of protection is calculated as follows: P=100−((number of scratching actions observed/mean number of scratching actions for the group treated with the solvent)×100) […]

Molecules are shown by their SMILES.

T1 sequence (O35433 whole entry): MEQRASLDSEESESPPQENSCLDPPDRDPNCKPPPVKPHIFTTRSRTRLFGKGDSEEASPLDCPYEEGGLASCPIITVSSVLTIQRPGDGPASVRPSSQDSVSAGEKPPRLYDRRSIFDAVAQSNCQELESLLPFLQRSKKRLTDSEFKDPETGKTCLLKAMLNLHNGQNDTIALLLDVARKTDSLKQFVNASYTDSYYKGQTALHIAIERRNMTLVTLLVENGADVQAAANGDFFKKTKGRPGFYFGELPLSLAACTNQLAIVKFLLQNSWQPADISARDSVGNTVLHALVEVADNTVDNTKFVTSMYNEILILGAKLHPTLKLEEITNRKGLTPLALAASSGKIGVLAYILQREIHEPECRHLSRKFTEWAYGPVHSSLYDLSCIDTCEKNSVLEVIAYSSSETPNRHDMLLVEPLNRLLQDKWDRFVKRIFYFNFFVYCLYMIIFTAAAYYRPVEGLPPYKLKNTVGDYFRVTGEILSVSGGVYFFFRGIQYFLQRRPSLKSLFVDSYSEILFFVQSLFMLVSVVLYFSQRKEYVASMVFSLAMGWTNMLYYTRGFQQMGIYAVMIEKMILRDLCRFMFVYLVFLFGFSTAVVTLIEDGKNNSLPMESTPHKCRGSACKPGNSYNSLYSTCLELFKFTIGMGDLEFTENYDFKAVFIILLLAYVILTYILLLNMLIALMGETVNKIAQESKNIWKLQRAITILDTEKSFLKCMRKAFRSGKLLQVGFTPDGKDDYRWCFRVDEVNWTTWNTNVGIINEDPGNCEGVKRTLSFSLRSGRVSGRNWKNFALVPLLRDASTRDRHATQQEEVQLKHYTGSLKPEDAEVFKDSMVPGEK

Broadly, the inhibition is the relative decrease from the control value, in per cent. The low end stands for a weak effect, the high end for a strong effect. Regarding `O=C(Nc1ccc2c(c1)NCCC2)c1cc2cc(F)ccc2n1Cc1cccc(F)c1` [Compound 14, N-(1,2,3,4-tetrahydroquinol-7-yl)-5-fluoro-1-[(3-fluorophenyl)methyl]-1H-indole-2-carboxamide], at 0.01 µM the inhibition in data set [1] (DRG neuron, compound 10 nM) was 38%. Also, the “% P (percentage of protection)” value in data set [2] is 46% - (1 h).

`Cn1ncc2cc(NC(=O)c3cc4cc(C(F)(F)F)ccc4n3Cc3cccc(F)c3)ccc21` [Compound 19, N-(1-methyl-1H-indazol-5-yl)-5-trifluoromethyl-1-[(3-fluorophenyl)methyl]-1H-indole-2-carboxamide] displayed an inhibition at 0.001 µM in data set [1] (DRG neuron, compound 1 nM) of 48%. Consider `O=C1CCc2ccc(NC(=O)c3cc4cc(F)ccc4n3Cc3cccc(F)c3)cc2N1` [Compound 20, N-(1H-2-oxo-3,4-dihydroquinol-7-yl)-5-fluoro-1-[(3-fluorophenyl)methyl]-1H-indole-2-carboxamide], for which the “% inhibition in DRG patch” value in data set [1] (compound 1 nM) is listed as 45% (1 nM). Further, in data set [2], the “% P (percentage of protection)” value is recorded as 26% - (1 h). For orientation: melting point means the temperature of the solid-liquid transition. The compound `O=C(Nc1ccc2oc(-c3ccccc3)nc2c1)c1cc2cc(C(F)(F)F)ccc2n1Cc1cccc(F)c1` [Compound 47, N-(2-phenylbenzoxazol-5-yl)-5-trifluoromethyl-1-[(3-fluorophenyl)methyl]-1H-indole-2-carboxamide] gave a melting point of 194 to 195 °C. Still for that read-out and setting: the figure for `COc1ccc2cc(C(=O)Nc3ccc4c(c3)NC(=O)CC4)n(Cc3ccc(F)cc3)c2c1` [Compound 53, N-(2-oxo-3,4-dihydroquinol-7-yl)-6-methoxy-1-[(4-fluorophenyl)methyl]-1H-indole-2-carboxamide] is 255 to 256 °C.
